In patent US20050220779A1, “Integrin linked kinase modulation of macrophage activation” (priority 2001, published 2005):

Experiments:
RAW 264.7 cells = test: Cell survival by crystal violet staining, RAW 264.7 cells; type: cell-based; conditions: 50 μM, 24 h, DMSO-treated = 100%
Experimental: (§1) Treatment of primary macrophages and RAW 264.7 cells. Primary macrophages (1.5×10^5 cells/well) and RAW 264.7 (4×10^4 cells/well) cells were grown in 96-well plates (nitrite assay), or 6-well plates (2×10^6 cells/well) for measurement of iNOS and COX-2 expression. Following 3 h incubation, at 37 C, 5% CO2 (macrophages were allowed to attach) cells were stimulated with LPS (0.5 μg/ml) and IFN-γ (100 U/ml) in the absence or presence of various concentrations of ILK inhibitors (all treatments were replicated six times). Cells were incubated for an additional 24 h, and cell free culture supernatants from each well were collected for NO and cytokine determination. The remaining cells were stained with crystal violet to determine effect of the inhibitors on cell survival.
Effect of ILK Inhibitors on suppression of NO production and cell survival. Twenty-four hours following treatment with the ILK inhibitors, aliquots from the cell-free supernatants were assayed for NO and IL-6 release. Surviving cells were stained and fixed (crystal violet 0.05% in 20% ethanol), to determine if the decrease in NO production was related to a decrease in cell number due to toxicity of the compounds. […] Only those compounds that induced strong inhibition of NO release, and caused no significant cell death were selected for further evaluation.

[1] = test system: C57BL/6 cells (primary peritoneal macrophages); test: Cell survival by crystal violet staining, C57BL/6 cells; type: cell-based; conditions: 50 μM, 24 h, DMSO-treated = 100%
Experimental: as §1, with “Primary macrophages (1.5×10^5 cells/well) and RAW 264.7 (4×10^4 cells/well) cells were grown in 96-well plates (nitrite assay), or 6-well plates (2×10^6 cells/well) for measurement of iNOS and COX-2 expression.” left out
Effect of ILK Inhibitors on suppression of NO production and cell survival. Twenty-four hours following treatment with the ILK inhibitors, aliquots from the cell-free supernatants were assayed for NO and IL-6 release. Surviving cells were stained and fixed (crystal violet 0.05% in 20% ethanol), to determine if the decrease in NO production was related to a decrease in cell number due to toxicity of the compounds.

CDC2 = CDC2 (Homo sapiens, UniProt P06493); test: Protein kinase selectivity, CDC2; type: biochemical
Sequence of CDC2 (P06493 whole entry, species assumed): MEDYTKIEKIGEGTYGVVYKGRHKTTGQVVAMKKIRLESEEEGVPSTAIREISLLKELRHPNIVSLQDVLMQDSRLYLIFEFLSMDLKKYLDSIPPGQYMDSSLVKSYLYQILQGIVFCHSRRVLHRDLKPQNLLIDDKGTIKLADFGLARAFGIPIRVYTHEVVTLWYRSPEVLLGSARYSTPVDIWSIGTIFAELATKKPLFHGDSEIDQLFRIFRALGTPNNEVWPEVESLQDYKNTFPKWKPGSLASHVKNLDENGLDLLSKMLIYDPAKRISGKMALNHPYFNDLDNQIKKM
Sequence of CDC2 (P14635 whole entry partner, species assumed): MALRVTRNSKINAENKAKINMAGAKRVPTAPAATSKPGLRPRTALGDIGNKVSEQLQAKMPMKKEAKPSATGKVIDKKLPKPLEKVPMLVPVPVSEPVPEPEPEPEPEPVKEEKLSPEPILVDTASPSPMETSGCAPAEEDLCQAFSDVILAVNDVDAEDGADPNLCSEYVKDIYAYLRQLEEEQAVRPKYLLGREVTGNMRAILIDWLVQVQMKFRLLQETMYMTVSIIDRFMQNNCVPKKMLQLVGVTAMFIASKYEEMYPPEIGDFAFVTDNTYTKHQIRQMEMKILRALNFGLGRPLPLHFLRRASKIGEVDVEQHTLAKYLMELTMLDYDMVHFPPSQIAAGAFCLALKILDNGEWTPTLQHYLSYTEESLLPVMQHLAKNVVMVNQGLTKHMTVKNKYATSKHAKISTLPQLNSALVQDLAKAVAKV

CK2 = CK2 (Homo sapiens, UniProt P68400); test: Protein kinase selectivity, CK2; type: biochemical
Sequence of CK2 (P68400 whole entry): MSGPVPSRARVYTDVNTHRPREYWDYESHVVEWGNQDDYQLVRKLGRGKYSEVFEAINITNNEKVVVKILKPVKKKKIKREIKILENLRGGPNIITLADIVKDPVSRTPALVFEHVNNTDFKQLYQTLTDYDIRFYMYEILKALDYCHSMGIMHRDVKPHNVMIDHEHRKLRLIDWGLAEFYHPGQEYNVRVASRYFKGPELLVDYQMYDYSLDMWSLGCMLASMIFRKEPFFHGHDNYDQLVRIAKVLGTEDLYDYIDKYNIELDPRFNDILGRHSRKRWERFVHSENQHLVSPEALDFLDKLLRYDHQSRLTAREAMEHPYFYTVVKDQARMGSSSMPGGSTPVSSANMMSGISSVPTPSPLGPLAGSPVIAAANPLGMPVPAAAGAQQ

ERK1 = ERK1 (Homo sapiens, UniProt P27361); test: Protein kinase selectivity, ERK1; type: biochemical
Sequence of ERK1 (P27361 whole entry, species assumed): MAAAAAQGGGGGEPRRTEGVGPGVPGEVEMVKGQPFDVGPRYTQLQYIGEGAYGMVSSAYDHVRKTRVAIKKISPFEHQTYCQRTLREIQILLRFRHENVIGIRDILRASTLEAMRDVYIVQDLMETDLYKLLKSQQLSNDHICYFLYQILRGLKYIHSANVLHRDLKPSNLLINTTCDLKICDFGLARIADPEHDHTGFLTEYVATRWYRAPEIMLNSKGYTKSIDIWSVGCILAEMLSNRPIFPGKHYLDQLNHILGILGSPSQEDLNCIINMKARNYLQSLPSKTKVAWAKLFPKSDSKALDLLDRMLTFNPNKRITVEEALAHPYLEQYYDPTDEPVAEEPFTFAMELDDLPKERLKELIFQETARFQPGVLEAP

HUVEC cells = test: In vitro Matrigel morphogenesis (tube formation) assay of VEGF stimulated HUVEC cells; type: cell-based, human; conditions: 100 mM (so in the source)
Experimental: In Vitro Angiogenesis. […] After 5 hours of incubation in a 5% CO2-humidified atmosphere at 37 °C, the three-dimensional organization of the cells was examined using an inverted photomicroscope. The cells were fixed with Crystal Violet (0.05% in 20% ethanol) and digitally photographed.
To determine the anti-angiogenic properties of ILK inhibitors, an in vitro Matrigel morphogenesis assay was established. This assay evaluates the ability of endothelial cells to differentiate into capillary-like structures, a crucial step during neovascularization. HUVEC cells when stimulated with VEGF and seeded onto Matrigel rapidly attach to the matrix and begin to migrate and interact with the extracellular matrix proteins present in the Matrigel. […] These capillary-like structures can be assessed by histology (FIG. 2). Samples are cut on a cross section and subsequent viewed using an electron microscope. Typically, cylindrical formations with a lumen are observed. A distinct difference in the morphology of tube formation on Matrigel, compared to other in vitro angiogenesis assays is a reduction in the proliferation of endothelial cells. […] Using this model system, both inhibitors and stimulators of angiogenesis can be assessed prior to in vivo testing.
The assay was established and reproducibility confirmed. SU5416, shown to inhibit angiogenesis in other assays, was also evaluated. […]

GSK3β = GSK3β (Homo sapiens, UniProt P49841); test: Protein kinase selectivity, GSK3β; type: biochemical
Sequence of GSK3β (P49841 whole entry, species assumed): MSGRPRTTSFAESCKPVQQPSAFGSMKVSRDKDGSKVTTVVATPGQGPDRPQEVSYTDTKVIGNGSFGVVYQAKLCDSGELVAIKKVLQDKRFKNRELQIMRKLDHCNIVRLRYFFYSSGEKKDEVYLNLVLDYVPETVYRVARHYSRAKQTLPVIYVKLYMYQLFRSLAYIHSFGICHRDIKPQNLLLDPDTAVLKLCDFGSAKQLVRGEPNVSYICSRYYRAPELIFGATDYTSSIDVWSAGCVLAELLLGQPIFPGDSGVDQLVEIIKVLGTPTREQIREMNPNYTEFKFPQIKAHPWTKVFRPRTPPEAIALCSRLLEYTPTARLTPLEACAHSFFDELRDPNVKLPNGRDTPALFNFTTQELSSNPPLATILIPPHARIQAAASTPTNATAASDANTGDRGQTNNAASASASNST

SRC = SRC (Homo sapiens, UniProt P12931); test: Protein kinase selectivity, SRC; type: biochemical
Sequence of SRC (P12931 whole entry, species assumed): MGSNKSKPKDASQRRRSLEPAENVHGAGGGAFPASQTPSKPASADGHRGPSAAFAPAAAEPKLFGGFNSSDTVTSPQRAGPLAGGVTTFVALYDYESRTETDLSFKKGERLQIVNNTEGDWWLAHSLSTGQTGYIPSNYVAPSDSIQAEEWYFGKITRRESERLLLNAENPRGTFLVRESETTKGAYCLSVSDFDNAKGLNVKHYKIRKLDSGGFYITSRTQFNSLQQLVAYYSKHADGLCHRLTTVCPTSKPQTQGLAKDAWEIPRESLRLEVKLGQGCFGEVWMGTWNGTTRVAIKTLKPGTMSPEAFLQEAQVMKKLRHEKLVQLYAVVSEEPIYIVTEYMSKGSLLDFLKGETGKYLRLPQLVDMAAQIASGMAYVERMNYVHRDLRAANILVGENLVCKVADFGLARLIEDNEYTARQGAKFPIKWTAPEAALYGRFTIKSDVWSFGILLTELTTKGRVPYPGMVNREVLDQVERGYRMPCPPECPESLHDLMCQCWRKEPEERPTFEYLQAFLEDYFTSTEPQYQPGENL

| Compound | Survival (%) (RAW 264.7 cells) | Survival (%) [1] | Inhibition of CDC2 (in words) (CDC2) | Inhibition of CK2 (in words) (CK2) | Inhibition of ERK1 (in words) (ERK1) | Effect on endothelial cell morphogenesis (in words) (HUVEC cells) | Inhibition of GSK3β (in words) (GSK3β) | Inhibition of SRC (in words) (SRC) |
| --- | --- | --- | --- | --- | --- | --- | --- | --- |
| N=C(N)N/N=C/c1ccc(Cl)cc1Cl [KP-16735] | 51% | 49% | – | – | – | – | – | – |
| Oc1ccc2c(c1)CC1NCCc3cc(O)c(O)c-2c31 (stereo not shown) [KP-21849, 5,6,6a,7-Tetrahydro-4H-dibenzo[de,g]quinoline-1,2,9-triol] | 51% | 44% | does not significantly inhibit | does not significantly inhibit | does not significantly inhibit | profound effect on HUVEC cells | does not significantly inhibit | does not significantly inhibit |
